Results reported in the NIST ThermoML archive (doi:10.1021/je8006309).
Numbers after ± are expanded uncertainties.

Key:
[1] = for Normal melting temperature: Crystal
[2] = Molar enthalpy of transition or fusion; settings: Crystal; DSC

SMILES	Normal melting temperature [1]	Normal melting temperature ([1]; DTA)	Glass transition temperature ([1]; Glass, DTA)	Molar enthalpy of transition or fusion [2]
CCCCCCCCO [octan-1-ol]	-14.00 ± 0.93 °C	–	–	–
CCCC[n+]1ccc(C)cc1.Cc1ccc(S(=O)(=O)[O-])cc1 [N-butyl-4-methylpyridinium tosylate]	–	51.71 ± 0.39 °C	-57.3 ± 3 °C	3.42 ± 0.0908 kcal/mol
c1ccccc1 [benzene]	–	5.14 ± 0.39 °C	–	–
O [water]	0.00 ± 0.93 °C	–	–	–
CCCCCCCCCCO [decan-1-ol]	7.36 ± 0.93 °C	–	–	–
